Results: patent publication US20250145642A1, “BICYCLIC HETEROARENES AND METHODS OF THEIR USE” (Kineta, Inc., priority 2021, published 2025)
Where two headings read alike, the source gives them in different places.

Columns and labels:
FAB1 TDP-43 yeast strain = experiment: Propidium iodide viability assay, FAB1 TDP-43 yeast strain; type: cell-based; conditions: for FAB1 TDP-43 (active/inactive): FAB1 TDP-43 yeast model
Description: (§1) Generation of TDP-43 yeast model expressing human PIKfyve. Human PIKFYVE (“entry clone”) was cloned into pAG416GPDccdB (“destination vector”) according to standard Gateway cloning protocols (Invitrogen, Life Technologies). The resulting pAG416GPD-PIKFYVE plasmids were amplified in E. coli and plasmid identity confirmed by restriction digest and Sanger sequencing. Lithium acetate/polyethylene glycol-based transformation was used to introduce the above PIKFYVE plasmid into a BY4741 yeast strain auxotrophic for the ura3 gene and deleted for two transcription factors that regulate the xenobiotic efflux pumps, a major efflux pump, and FAB1, the yeast ortholog of PIKFYVE (MATa, snq2::KILeu2; pdr3::KIura3;pdr1::NATMX; fab1::G418^R, his 3;leu2;ura3;met15;LYS2+) (FIG. 2). Transformed yeast were plated on solid agar plates with complete synthetic media lacking uracil (CSM-ura) and containing 2% glucose. Individual colonies harboring the control or PIKFYVE TDP-43 plasmids were recovered. A plasmid containing wild-type TDP-43 under the transcriptional control of the GAL1 promoter and containing the hygromycin-resistance gene as a selectable marker was transformed into the fab1::G418^R pAG416GPD-PIKFYVE yeast strain (FIG. 1). Transformed yeast were plated on CSM-ura containing 2% glucose and […] G418 after overnight recovery in media lacking antibiotic. Multiple independent isolates were further evaluated for cytotoxicity and TDP-43 expression levels.
(§2) Viability Assay. A control yeast strain with the wild-type yeast FAB1 gene and TDP-43 (“FAB1 TDP-43”, carries empty pAG416 plasmid), and the “PIKFYVE TDP-43” yeast strain, were assessed for toxicity using a propidium iodide viability assay. Both yeast strains were transferred from solid CSM-ura/2% glucose agar plates into 3 mL of liquid CSM-ura/2% glucose media for 6-8 hours at 30° C. with aeration. Yeast cultures were then diluted to an optical density at 600 nm wavelength (OD600) of 0.005 in 3 mL of CSM-ura/2% raffinose and grown overnight at 30° C. with aeration to an OD600 of 0.3-0.8. Log-phase overnight cultures were diluted to OD600 of 0.005 in CSM-ura containing either 2% raffinose or galactose and 150 μL dispensed into each well of a flat bottom 96-well plates. Compounds formulated in 100% dimethyl sulfoxide (DMSO) were serially diluted in DMSO and 1.5 μL diluted compound transferred to the 96-well plates using a multichannel pipet. Wells containing DMSO alone were also evaluated as controls for compound effects. Tested concentrations ranged from 15 μM to 0.11 μM. Cultures were immediately mixed to ensure compound distribution and covered plates incubated at 30° C. for 24 hours in a stationary, humified incubator.
(§3) Upon the completion of incubation, cultures were assayed for viability using propidium iodide (PI) to stain for dead/dying cells. A working solution of PI was made where, for each plate, 1 μL of 10 mM PI was added to 10 mL of CSM-ura (raffinose or galactose). The final PI solution (50 μL/well) was dispensed into each well of a new round bottom 96-well plate. The overnight 96-well assay plate was then mixed with a multichannel pipet and 50 μL transferred to the PI-containing plate. This plate was then incubated for 30 minutes at 30° C. in the dark. A benchtop flow cytometer (Miltenyi MACSquant) was then used to assess red fluorescence (B2 channel), forward scatter, and side scatter (with following settings: gentle mix, high flow rate, fast measurement, 10,000 events). Intensity histograms were then gated for “PI-positive” or “PI-negative” using the raffinose and galactose cultures treated with DMSO as controls. The DMSO controls for raffinose or galactose-containing cultures were used to determine the window of increased cell death and this difference set to 100. All compounds were similarly gated and then compared to this maximal window to establish the percent reduction in PI-positive cells.

[1] = system: PIKFYVE TDP-43 yeast strain; experiment: Propidium iodide viability assay, PIKFYVE TDP-43 yeast strain; type: cell-based; conditions: for PIKfyve TDP-43 (active/inactive): PIKFYVE TDP-43 yeast model
Description: as §1, §2, §3
Biochemical and Efficacy Assays. […]

[2] = target: full-length human PIKFYVE (N-terminal GST-fusion) (Homo sapiens (Human), UniProt Q9Y2I7, L932S/Q1183K/Q995L/S1033A/S696N/T998S); experiment: PIKfyve biochemical assay (ADP-Glo Kinase assay, Carna Biosciences)
Summary of the method: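 Baculovirus-expressed, glutathione-purified GST-tagged full-length human PIKFYVE (S696N/L932S/Q995L/T998S/S1033A/Q1183K) reacted with substrate and ATP in 50 mM MOPS, 1 mM DTT, pH 7.2, 1 h at room temperature. ADP formed read by ADP-Glo luminescence.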

[3] = target: PIKfyve (PIKFYVE-NanoLuc fusion in HEK293 cells) (Homo sapiens (Human), UniProt Q9Y2I7); experiment: NanoBRET TE Intracellular Kinase Assay, K-8 (Promega) cell-based assay; conditions: transfected HEK293 cells, 2 hours, read-out: hPIKfyve BRET IC50
Experimental: NanoBRET™ TE Intracellular Kinase Assay, K-8 (Promega) Cell-Based Assay. Intracellular inhibition of PIKfyve was assayed using Promega's NanoBRET™ TE Intracellular Kinase Assay, K-8 according to manufacturer's instructions. A dilution series of test compounds was added for 2 hours to HEK293 cells transfected for a minimum of 20 hours with PIKFYVE-NanoLuc® Fusion Vector (Promega) containing a full-length PIKfyve according to manufacturer's specifications in a 96-well plate. Kinase activity was detected by addition of a NanoBRET™ tracer reagent, which was a proprietary PIKfyve inhibitor appended to a fluorescent probe (BRET, bioluminescence resonance energy transfer). Test compounds were tested at concentrations of 10, 3, 1, 0.3, 0.1, 0.03, 0.01, 0.003 μM. BRET signals were measured by a GloMax®Discover Multimode Microplate Reader (Promega) using 0.3 sec/well integration time, 450 BP donor filter and 600 LP acceptor filters. Active test compounds that bound PIKfyve and displaced the tracer reduced BRET signal. IC50 values were then calculated by fitting the data to the normalized BRET ratio.

[4] = ADP-Glo, full-length human GST-PIKFYVE, 10 μM to 3 nM, read-out: hPIKfyve IC50

Chain of full-length human PIKFYVE (N-terminal GST-fusion) (Q9Y2I7 whole entry S696N/L932S/Q995L/T998S/S1033A/Q1183K, the tested form may be a part): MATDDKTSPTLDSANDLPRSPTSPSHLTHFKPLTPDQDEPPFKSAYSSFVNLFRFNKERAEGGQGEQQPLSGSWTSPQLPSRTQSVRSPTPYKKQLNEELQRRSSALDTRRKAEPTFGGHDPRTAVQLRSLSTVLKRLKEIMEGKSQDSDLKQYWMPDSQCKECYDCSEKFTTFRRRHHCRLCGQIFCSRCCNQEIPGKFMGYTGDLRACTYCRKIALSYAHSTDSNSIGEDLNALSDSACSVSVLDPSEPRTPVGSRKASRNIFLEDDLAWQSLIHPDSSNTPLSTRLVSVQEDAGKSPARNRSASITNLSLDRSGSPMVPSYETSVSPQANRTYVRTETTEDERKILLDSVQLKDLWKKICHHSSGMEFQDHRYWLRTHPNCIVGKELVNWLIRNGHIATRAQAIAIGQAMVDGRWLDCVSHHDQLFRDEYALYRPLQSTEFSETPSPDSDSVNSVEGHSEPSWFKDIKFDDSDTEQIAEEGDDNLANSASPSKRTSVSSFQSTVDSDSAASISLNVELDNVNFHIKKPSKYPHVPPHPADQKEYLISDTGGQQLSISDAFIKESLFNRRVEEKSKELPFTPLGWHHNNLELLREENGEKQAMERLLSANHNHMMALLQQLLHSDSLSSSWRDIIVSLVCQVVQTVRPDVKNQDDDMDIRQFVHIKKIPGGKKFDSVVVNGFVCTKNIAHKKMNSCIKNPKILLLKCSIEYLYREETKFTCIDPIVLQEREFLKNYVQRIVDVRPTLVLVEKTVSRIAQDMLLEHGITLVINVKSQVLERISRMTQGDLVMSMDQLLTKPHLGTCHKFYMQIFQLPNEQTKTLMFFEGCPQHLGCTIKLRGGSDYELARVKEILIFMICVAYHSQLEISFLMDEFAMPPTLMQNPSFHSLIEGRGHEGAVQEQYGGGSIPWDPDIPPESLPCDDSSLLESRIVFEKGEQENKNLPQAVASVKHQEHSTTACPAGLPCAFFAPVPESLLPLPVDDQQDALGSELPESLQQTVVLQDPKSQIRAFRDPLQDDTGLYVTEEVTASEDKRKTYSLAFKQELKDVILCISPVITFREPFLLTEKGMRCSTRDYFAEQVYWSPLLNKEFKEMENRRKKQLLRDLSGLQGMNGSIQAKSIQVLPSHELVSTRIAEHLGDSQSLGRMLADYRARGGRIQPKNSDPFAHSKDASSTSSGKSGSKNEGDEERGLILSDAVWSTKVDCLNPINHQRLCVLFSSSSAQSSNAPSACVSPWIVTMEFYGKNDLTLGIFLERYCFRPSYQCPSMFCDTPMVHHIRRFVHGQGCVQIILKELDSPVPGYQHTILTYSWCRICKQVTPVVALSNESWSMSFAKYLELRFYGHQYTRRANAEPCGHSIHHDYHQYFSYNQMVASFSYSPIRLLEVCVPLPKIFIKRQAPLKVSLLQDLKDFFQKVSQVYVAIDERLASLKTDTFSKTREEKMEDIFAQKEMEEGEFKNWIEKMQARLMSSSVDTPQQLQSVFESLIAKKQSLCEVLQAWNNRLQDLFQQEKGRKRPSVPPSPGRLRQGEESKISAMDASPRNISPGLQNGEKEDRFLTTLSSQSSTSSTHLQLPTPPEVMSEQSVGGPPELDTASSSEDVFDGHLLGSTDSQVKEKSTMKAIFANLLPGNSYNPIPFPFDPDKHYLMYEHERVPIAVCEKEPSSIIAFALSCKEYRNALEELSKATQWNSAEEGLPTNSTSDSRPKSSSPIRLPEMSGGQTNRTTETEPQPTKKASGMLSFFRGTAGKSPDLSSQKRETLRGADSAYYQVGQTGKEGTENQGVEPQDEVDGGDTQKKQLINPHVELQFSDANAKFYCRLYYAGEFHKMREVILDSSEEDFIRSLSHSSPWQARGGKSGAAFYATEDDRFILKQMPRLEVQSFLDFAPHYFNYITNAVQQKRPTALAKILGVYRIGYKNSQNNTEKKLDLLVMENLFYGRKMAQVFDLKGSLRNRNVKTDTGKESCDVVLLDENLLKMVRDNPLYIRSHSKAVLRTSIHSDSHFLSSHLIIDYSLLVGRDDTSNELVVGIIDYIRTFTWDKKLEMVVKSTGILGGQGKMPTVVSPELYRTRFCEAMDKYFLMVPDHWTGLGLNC
Chain of PIKfyve (PIKFYVE-NanoLuc fusion in HEK293 cells) (Q9Y2I7 whole entry, the tested form may be a part): as the sequence (Q9Y2I7 whole entry S696N/L932S/Q995L/T998S/S1033A/Q1183K, the tested form may be a part) above, with N696S, S932L, L995Q, S998T, A1033S, K1183Q counted along it

Structure (SMILES) | FAB1 TDP-43 (active/inactive) (FAB1 TDP-43 yeast strain) | PIKfyve TDP-43 (active/inactive) [1] | IC50 [2, 4] | IC50 [3] | other results
Cn1c(-c2ccncc2)nc2c(N3CCOCC3)ncnc21 | Inactive | Inactive |  |  | 
Cc1cccc(/C=N/Nc2nc3c(c(N4CCOCC4)n2)N=C(c2ccncc2)C3C)c1 (stereo not shown) | Inactive | Active |  |  | IC50 ([2]; ADP-Glo with full-length PIKfyve, read-out: PIKfyve IC50): 4.9 nM
Clc1nc(N2CCOCC2)nc2c1CCN2c1ccccc1 [Compound 1, 4-(4-chloro-7-phenyl-6,7-dihydro-5H-pyrrolo[2,3-d]pyrimidin-2-yl)morpholine] |  |  | 100 to 1000 nM | 100 to 1000 nM | 
c1ccc(N2CCc3c(OC4CCOCC4)nc(N4CCOCC4)nc32)cc1 [Compound 21, 4-(7-phenyl-4-((tetrahydro-2H-pyran-4-yl)oxy)-6,7-dihydro-5H-pyrrolo[2,3-d]pyrimidin-2-yl)morpholine] |  |  | 100 to 1000 nM | 100 to 1000 nM | 
Cc1cccc(/C=N/Nc2cc(N3CCOCC3)n3nc(-c4ccncc4)cc3n2)c1 [drawing 514] | Inactive | Active |  |  | 
c1ccc(-n2ncc3c(OCc4cccnc4)nc(N4CCOCC4)nc32)cc1 [Compound 132, 4-(1-phenyl-4-(pyridin-3-ylmethoxy)-1H-pyrazolo[3,4-d]pyrimidin-6-yl)morpholine] |  |  | 10 to 100 nM | 100 to 1000 nM | 
CN(C)c1cc(N2CCOCC2)n2nc(-c3ccncc3)cc2n1 | Inactive | Inactive |  |  | 
Cc1cccc(/C=N/Nc2cc(N3CCOCC3)n3nc(-c4ccncc4)cc3n2)c1 [APY0201, reference compound] |  |  |  |  | viable cells in FAB1 TDP-43 (propidium iodide) (FAB1 TDP-43 yeast strain; across a range of compound concentrations (only 0.23 μM is shown), FIG. 5): no increase in viable cells; propidium iodide-positive dead cells in PIKFYVE TDP-43 ([1]; 0.23 μM, FIG. 6): reduced the population of propidium iodide-positive dead cells; concentrations affording increased viability in PIKFYVE TDP-43 ([1]; PIKFYVE TDP-43 model): Concentrations ranging from 0.5 mM to less than 100 nM afforded increased viability
N#Cc1cc(N2CCOCC2)n2nc(-c3ccncc3)cc2n1 | Inactive | Inactive |  |  | 
Cc1cccc(/C=N/Nc2cc(N3CC4CC3CO4)n3nc(-c4ccncc4)cc3n2)c1 (stereo not shown) | Inactive | Active |  |  | 
